According to patent US20120157532A1, “Method Of Treating Or Preventing A Convulsive Disorder In A Patient In Need Thereof” (priority 2009, published 2012):

Tests used:
visual field = conditions: patients; cited from earlier work
[1] = test system: Wistar rats Rj Wi IOPS Han; experiment: Photopic electroretinogram (ERG) in VGB-treated rats; assay type: in vivo, rat; conditions: for photopic ERG amplitude versus control group: p<0.001/p<0.01
Description: (§1) Animal treatments: As described previously (Duboc et al., 2004), Wistar rats Rj Wi IOPS Han were purchased from Janvier (Le Genest-St-lsle, France) at between six and seven weeks of age. VGB dissolved in 0.9% NaCl was administered at 40 mg (125 mg/ml, 0.32 ml) to rats by daily intraperitoneal injection for 65 days. These daily doses (rats: 200 mg/kg) are in-line with those described for the treatment of epilepsy in animals (Andre et al., 2001) or in humans (adult patients: […]; children: 50-75 mg/kg; or infants: 100-150 mg/kg) (Aicardi et al., 1996; Chiron et al., 1997; Lux et al., 2004). Light intensity in the animal cages ranged between 125 and 130 lux.
Electroretinogram (ERG): Photopic ERGs were recorded after the last VGB injection, as described previously (Duboc et al., 2004). Anesthesia was induced by intraperitoneal injection (0.8 to 1.2 ml/kg) of a solution containing ketamine (40 mg/ml) and xylazine (4 mg/ml Rompum). Animals were light-adapted for 10 minutes with a background light of 25 cdm^−2. Light flashes were then applied on this background light; the light intensity of the flash was 25 cdsm^−2. Ten recordings were averaged with an interstimulus interval of 30 s.
Statistical analysis: Statistical analysis of the results was performed by a one-way analysis of variance with the Student-Newman Keuls test (Sigmastat) for all measurements.

[2] = test system: Wistar rats Rj Wi IOPS Han; experiment: Histology: lengths of disorganised retinal areas (DAPI nuclear staining); assay type: in vivo, rat; conditions: evening versus morning injection, 65 days; p<0.05
Description: as §1
Histology: Eye cups were fixed overnight at 4° C. in 4 % (wt/vol) paraformaldehyde in phosphate buffered saline (PBS; 0.01 M, pH 7.4). The tissue was cryoprotected in successive solutions of PBS containing 10%, 20% and 30% sucrose at 4° C., oriented along the dorso-ventral axis and embedded in OCT (Labonord, Villeneuve d'Ascq, France). […]
(§2) For quantification, vertical sections along the dorso-ventral axis were selected at the optic nerve. Following DAPI nuclear staining, the lengths of disorganised retinal areas were measured; GFAP immunostaining was used for detection and quantificationof retinal areas with reactive gliosis. […]

[3] = patients, oral administration; cited from earlier work
[4] = test system: Wistar rats Rj Wi IOPS Han; experiment: Histology: retinal gliosis by GFAP immunolabelling; assay type: in vivo, rat; conditions: 65 days
Description: as §1
Histology: Eye cups were fixed overnight at 4° C. in 4 % (wt/vol) paraformaldehyde in phosphate buffered saline (PBS; 0.01 M, pH 7.4). The tissue was cryoprotected in successive solutions of PBS containing 10%, 20% and 30% sucrose at 4° C., oriented along the dorso-ventral axis and embedded in OCT (Labonord, Villeneuve d'Ascq, France). Retinal sections (8-10 μm thickness) were permeabilised for five minutes in PBS containing 0.1% Triton X-100 (Sigma, St. Louis, Mo.), rinsed, and incubated in PBS containing 1% bovine serum albumin (Eurobio, Les-Ulis, France), 0.1% Tween 20 (Sigma), and 0.1% sodium azide (Merck, Fontenay-Sous-Bois, France) for two hours at room temperature. The primary antibody added to the solution was incubated for two hours at room temperature. Polyclonal antibodies were directed against rabbit GFAP (1/400, Dako, USA). Sections were rinsed and then incubated with the secondary antibody, goat anti-rabbit IgG conjugated to Alexa TM488 (1:500, Molecular Probes, Eugene, Oreg.) for two hours. The dye, diamidiphenyl-indole (DAPI), was added during the final incubation period. […]
as §2

GABA transaminase = GABA transaminase (Homo sapiens, UniProt P80404); conditions: cited from earlier work
Sequence of GABA transaminase (P80404 29-500, species assumed): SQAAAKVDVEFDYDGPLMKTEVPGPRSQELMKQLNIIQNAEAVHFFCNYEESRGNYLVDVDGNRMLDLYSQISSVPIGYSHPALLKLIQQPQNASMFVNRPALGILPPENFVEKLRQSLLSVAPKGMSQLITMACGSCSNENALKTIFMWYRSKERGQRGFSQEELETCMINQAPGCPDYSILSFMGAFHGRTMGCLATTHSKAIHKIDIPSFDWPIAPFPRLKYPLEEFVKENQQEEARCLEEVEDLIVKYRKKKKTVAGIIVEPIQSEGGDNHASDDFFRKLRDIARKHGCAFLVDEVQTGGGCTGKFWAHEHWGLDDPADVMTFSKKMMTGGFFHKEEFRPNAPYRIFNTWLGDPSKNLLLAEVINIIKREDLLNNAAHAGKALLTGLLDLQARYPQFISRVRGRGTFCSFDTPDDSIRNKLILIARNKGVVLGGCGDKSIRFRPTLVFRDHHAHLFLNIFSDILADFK

SMILES: C=CC(N)CCC(=O)O (centres unmarked) [VGB, 4-amino-5-hexenoic acid]
- effect on visual field (visual field): irreversible constriction of the visual field
- photopic ERG amplitude versus control group ([1]; VGB AM: 40 mg daily i.p. for 65 days at the beginning of the light cycle): lower ERG amplitude
- photopic ERG amplitude versus control group ([1]; VGB PM: 40 mg daily i.p. for 65 days at the end of the light cycle): lower ERG amplitude
- ERG amplitude decrease, VGB PM versus VGB AM ([1]; injected at the end versus the beginning of the light cycle, 65 days, p<0.005): less important
- disorganised retinal areas (outer nuclear layer), VGB PM versus VGB AM [2]: smaller disorganised retinal areas
- time for plasma VGB concentration to decrease to half of the peak concentration [3]: within six to eight hours
- time to peak plasma VGB concentration [3]: within an hour
- GFAP staining in the outer retina versus control animals ([4]; VGB AM: morning injection): intense staining in the outer retina
- GFAP staining in the outer retina versus control animals ([4]; VGB PM: evening injection): intense staining in the outer retina
- distribution of GFAP-positive areas, VGB PM versus VGB AM ([4]; evening versus morning injection, p<0.05): less widely distributed
- duration of irreversible inhibition of the GABA transaminase (GABA transaminase): lasts for few days
